*1 amine or outer side, *2 acyl side, *3 side chain or, on linkers, in order; H or OH if unused. Where a SMILES comes first, the peptide text is derived from it. Side-chain parts run from the residue outwards. [ ]: non-standard residue; d: D form. The star is where a group is joined. γGlu = O=C(O)[C@H](CCC(=O)[*:2])N[*:1]; Palmitoyl = CCCCCCCCCCCCCCCC(=O)*; Aib = CC(C)(N)C(=O)O
Legend:
[1] = target: T1, glucagon receptor (Homo sapiens, UniProt P47871); assay: firefly luciferase-based cAMP reporter assay, HEK293 cells co-transfected with glucagon receptor (Example 3); assay type: cell-based; details: procedure of Example 3
T1 construct: expressed in transfected cells; host or cells: HEK293
Description: (§1) The ability of each peptide to induce cAMP was measured in a firefly luciferase-based reporter assay.
(§2) At the end of the incubation, 100 μL of LucLite luminescence substrate reagent (Perkin Elmer, Wellesley, Mass.) were added to each well.

[2] = target: T2, GIP receptor (Homo sapiens, UniProt P48546); assay: firefly luciferase-based cAMP reporter assay, HEK293 cells, GIP receptor (Example 3); assay type: cell-based; details: procedure of Example 3
T2 construct: expressed in transfected cells; host or cells: HEK293
T2 sequence (P48546 22-466): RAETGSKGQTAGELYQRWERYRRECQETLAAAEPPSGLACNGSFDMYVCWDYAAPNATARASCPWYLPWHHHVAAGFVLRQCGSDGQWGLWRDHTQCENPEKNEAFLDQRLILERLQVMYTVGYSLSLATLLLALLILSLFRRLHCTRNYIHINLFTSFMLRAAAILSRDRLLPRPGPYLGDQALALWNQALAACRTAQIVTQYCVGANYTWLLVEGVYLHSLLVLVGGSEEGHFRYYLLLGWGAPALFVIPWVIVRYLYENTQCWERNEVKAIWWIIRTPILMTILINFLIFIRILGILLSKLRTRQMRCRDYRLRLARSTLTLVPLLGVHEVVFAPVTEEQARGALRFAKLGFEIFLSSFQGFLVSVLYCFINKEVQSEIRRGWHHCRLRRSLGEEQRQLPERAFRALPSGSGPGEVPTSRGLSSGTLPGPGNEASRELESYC
Description: It is understood that a lower EC50 indicates higher activity or potency at the receptor.
as §1, §2
In some instances, the in vitro agonist activity at the GIP receptor was also tested.

[3] = body weight of diet-induced obese (DIO) mice dosed daily for nine days (Example 7); assay type: in vivo; details: Day 9; for body weight reduction: 3 nmol/kg daily; for body weight loss: 9 nmol/kg daily
Description: (§3) Mice were administered a vehicle control or a dose of a peptide daily for nine days. The peptides tested in this study included a peptide of SEQ ID NO: 12, a peptide of SEQ ID NO: 17, a peptide of SEQ ID NO: 18, and a peptide of SEQ ID NO: 19. Doses of each peptide were varied—each of the peptides of SEQ ID NO: 12, 17, and 19 was administered at a dose of either 3 nmol/kg or 9 nmol/kg, while the peptide of SEQ ID NO: 18 was administered at a dose of 1 nmol/kg, 3 nmol/kg, or 9 nmol/kg. Data are expressed as mean±SEM.

[4] = target: T3, human GLP-1R (Homo sapiens, UniProt P43220); assay: firefly luciferase-based cAMP reporter assay, HEK293 cells co-transfected with GLP-1 receptor (Example 3); assay type: cell-based; design: expressed in transfected cells; host or cells: HEK293; details: procedure of Example 3
Description: as §1, §2

[5] = target: T4, human GCGR (Homo sapiens, UniProt P47871); assay: cAMP production in CHO-K1 cells stably expressing human GCGR, DiscoveRx Hithunter cAMP XS+ (Example 4); assay type: cell-based; details: procedure of Example 4
T4 construct: host or cells: CHO-K1
Description: (§4) The in vitro agonist potencies of the peptide of SEQ ID NO. 17 were determined using Chinese Hamster Ovary cells (CHO-K1) stably expressing human GLP-1R, GCGR or GIPR. The GLP-1R and GCGR stable cell line isogenic pools were generated by Invitrogen using their Jump-In™ targeted integration technology, whereas the stable CHO/GIPR lines were generated through classic cloning and transfection techniques (random integration) with limited dilution for selection of clones. The peptides were tested in vitro for their relative abilities to stimulate cAMP production in the various cell lines using the DiscoveRx Hithunter™ cAMP XS+ assay kit (cat#90-0075L) as per kit instructions.

[6] = target: T5, human GIPR (Homo sapiens, UniProt P48546); assay: cAMP production in CHO-K1 cells stably expressing human GIPR, DiscoveRx Hithunter cAMP XS+ (Example 4); assay type: cell-based; details: procedure of Example 4, read-out: EC50 (nM) at GIP receptor
T5 construct: expressed in transfected cells; host or cells: CHO-K1
T5 sequence (P48546 22-466): T2 sequence (P48546 22-466)
Description: as §4

[7] = ambient glucose levels of DIO mice dosed daily for nine days (Example 7); assay type: in vivo
Description: as §3
In addition to cumulative body weight change, ambient glucose levels of the DIO mice were measured.

[8] = body weight of obese rhesus monkeys dosed daily for 21 days (Example 8); assay type: in vivo
Description: (§5) The in vivo effects of a peptide of the invention were confirmed in obese rhesus monkeys by administering daily for 21 days a vehicle control, a commercially available product (Liraglutide), a peptide of SEQ ID NO: 20, or a peptide of SEQ ID NO: 17. […] Body weight and food intake were measured.

[9] = food intake of obese rhesus monkeys dosed daily for 21 days (Example 8); assay type: in vivo; details: 3 μg/kg s.c. daily for 21 days
Description: as §5

[10] = fasting blood glucose (FBG) of diabetic rhesus monkeys treated for 10 days (Example 9); assay type: in vivo; details: 1 μg/kg s.c. for 10 days
Description: (§6) The in vivo effects of a peptide of the invention were tested in diabetic rhesus monkeys (n=7) that were aged 16-26 years and having an average body weight of […]. Diabetic rhesus monkeys (n=7) that were aged 16-26 years with an average body weight of […] were administered a vehicle control, Liraglutide at a dose of 10 μg/kg s.c. or a peptide of SEQ ID NO: 17 at a dose of 1 μg/kg s.c. for 10 days. At the end of each treatment, fasting blood glucose (FBG) was measured first followed by a Meal Tolerance Test (MTT) to assess glucose tolerance. […] Data are expressed in FIG. 4 as mean±SEM. *P<0.05 versus vehicle.

[11] = Meal Tolerance Test (MTT) in diabetic rhesus monkeys treated for 10 days (Example 9); assay type: in vivo; details: 1 μg/kg s.c. for 10 days
Description: as §6

[12] = target: T3, human GLP-1R; assay: cAMP production in CHO-K1 cells stably expressing human GLP-1R, DiscoveRx Hithunter cAMP XS+ (Example 4); assay type: cell-based; design: host or cells: CHO-K1; details: CHO-K1 stably expressing human GLP-1R, procedure of Example 4
Description: as §4

T3 sequence (P43220 24-463): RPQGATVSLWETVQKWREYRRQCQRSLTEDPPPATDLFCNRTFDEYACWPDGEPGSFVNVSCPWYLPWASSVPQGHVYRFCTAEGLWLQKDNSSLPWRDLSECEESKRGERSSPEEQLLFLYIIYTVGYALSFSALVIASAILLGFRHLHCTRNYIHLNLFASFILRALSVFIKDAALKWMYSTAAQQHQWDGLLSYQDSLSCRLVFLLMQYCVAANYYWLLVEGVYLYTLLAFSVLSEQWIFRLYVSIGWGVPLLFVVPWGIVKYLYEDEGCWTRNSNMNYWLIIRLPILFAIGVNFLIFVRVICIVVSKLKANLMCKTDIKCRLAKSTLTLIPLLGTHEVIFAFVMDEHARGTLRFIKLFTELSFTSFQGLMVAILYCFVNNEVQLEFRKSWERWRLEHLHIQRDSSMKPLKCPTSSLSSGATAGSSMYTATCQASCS
T1 sequence (P47871 26-477): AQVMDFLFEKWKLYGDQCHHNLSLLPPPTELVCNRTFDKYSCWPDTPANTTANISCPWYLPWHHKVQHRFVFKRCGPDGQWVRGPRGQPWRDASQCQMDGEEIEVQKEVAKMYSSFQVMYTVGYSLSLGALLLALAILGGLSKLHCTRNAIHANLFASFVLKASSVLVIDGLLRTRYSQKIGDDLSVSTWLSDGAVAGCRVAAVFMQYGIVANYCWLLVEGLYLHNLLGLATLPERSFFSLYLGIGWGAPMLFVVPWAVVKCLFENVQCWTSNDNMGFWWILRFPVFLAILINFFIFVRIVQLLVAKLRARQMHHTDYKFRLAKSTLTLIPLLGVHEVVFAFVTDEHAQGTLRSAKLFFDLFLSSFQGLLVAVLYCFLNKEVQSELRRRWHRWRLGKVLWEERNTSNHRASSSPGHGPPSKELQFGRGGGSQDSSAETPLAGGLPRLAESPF
T4 sequence (P47871 26-477): as above

EC50 [1] [nM]	EC50 [2] [nM]	EC50 [4] [nM]	EC50 [5] [nM]	EC50 [6] [nM]	EC50 [12] [nM]	SMILES	body weight reduction [3] [%]	body weight loss [3] [%]	reduction in glucose levels compared to vehicle control mice ([7]; 3 nmol/kg daily, Day 7) [%]	decrease in glucose levels compared to vehicle control mice ([7]; 3 nmol/kg daily, Day 9) [%]	decrease in glucose levels compared to vehicle control mice ([7]; 9 nmol/kg daily, Day 4) [%]	decrease in glucose levels compared to vehicle control mice ([7]; 9 nmol/kg daily, Day 7) [%]	decrease in glucose levels compared to vehicle control mice ([7]; 9 nmol/kg daily, Day 9) [%]	weight loss vs. baseline and vehicle ([8]; 3 μg/kg s.c. daily for 21 days) [kg]	body weight following a one week wash-out ([8]; Day 28, after 21 days at 3 μg/kg s.c.)	food intake, % change vs. baseline [9] [%]	FBG change vs. vehicle [10] [%]	fasting blood glucose (FBG) ([10]; mean±SEM) [mg/dL]	glucose tolerance during MTT as compared to vehicle [11]
0.01	12.8	0.003				CCCCCCCCCCCCCCCC(=O)N[C@@H](CCC(=O)N[C@@H](CCC(=O)NCCCC[C@H](NC(=O)[C@H](CC(=O)O)NC(=O)[C@H](CO)NC(=O)[C@@H](NC(=O)[C@H](Cc1ccccc1)NC(=O)[C@@H](NC(=O)CNC(=O)[C@H](CCC(N)=O)NC(=O)C(C)(C)NC(=O)[C@@H](N)Cc1c[nH]cn1)[C@@H](C)O)[C@@H](C)O)C(=O)N[C@@H](CO)C(=O)N[C@@H](CCCCN)C(=O)N[C@@H](Cc1ccc(O)cc1)C(=O)N[C@@H](CC(C)C)C(=O)N[C@@H](CC(=O)O)C(=O)NC(C)(C)C(=O)N[C@@H](CCCNC(=N)N)C(=O)N[C@@H](C)C(=O)N[C@@H](C)C(=O)N[C@@H](CCC(N)=O)C(=O)N[C@@H](CC(=O)O)C(=O)N[C@@H](Cc1ccccc1)C(=O)N[C@H](C(=O)N[C@@H](CCC(N)=O)C(=O)N[C@@H](Cc1c[nH]c2ccccc12)C(=O)N[C@@H](CC(C)C)C(=O)N[C@@H](CCSC)C(=O)N[C@@H](CC(=O)O)C(=O)N[C@H](C(=O)N[C@@H](CCCCN)C(=O)N[C@@H](CCC(N)=O)C(=O)O)[C@@H](C)O)C(C)C)C(=O)O)C(=O)O [SEQ ID NO: 12] (H-H[Aib]QGTFTSDK([γGlu-γGlu-Palmitoyl])SKYLD[Aib]RAAQDFVQWLMDTKQ-OH; N-terminus assumed)	~5.3	~29.8											
0.015	1.04	0.019				CCCCCCCCCCCCCCCC(=O)N[C@@H](CCC(=O)N[C@@H](CCC(=O)NCCCC[C@H](NC(=O)[C@H](CC(=O)O)NC(=O)[C@H](CO)NC(=O)[C@@H](NC(=O)[C@H](Cc1ccccc1)NC(=O)[C@@H](NC(=O)CNC(=O)[C@H](CCC(N)=O)NC(=O)C(C)(C)NC(=O)[C@@H](N)Cc1c[nH]cn1)[C@@H](C)O)[C@@H](C)O)C(=O)N[C@@H](CO)C(=O)N[C@@H](CCCCN)C(=O)N[C@@H](Cc1ccc(O)cc1)C(=O)N[C@@H](CC(C)C)C(=O)N[C@@H](CC(=O)O)C(=O)NC(C)(C)C(=O)N[C@@H](CCCNC(=N)N)C(=O)N[C@@H](C)C(=O)N[C@@H](C)C(=O)N[C@@H](CCC(N)=O)C(=O)N[C@@H](CC(=O)O)C(=O)N[C@@H](Cc1ccccc1)C(=O)N[C@H](C(=O)N[C@@H](CCC(N)=O)C(=O)N[C@@H](Cc1c[nH]c2ccccc12)C(=O)N[C@@H](CC(C)C)C(=O)N[C@@H](CC(C)C)C(=O)N[C@@H](CC(=O)O)C(=O)N[C@H](C(=O)N[C@@H](CCCCN)C(=O)N[C@@H](CCC(N)=O)C(=O)O)[C@@H](C)O)C(C)C)C(=O)O)C(=O)O [SEQ ID NO: 16] (H-H[Aib]QGTFTSDK([γGlu-γGlu-Palmitoyl])SKYLD[Aib]RAAQDFVQWLLDTKQ-OH; N-terminus assumed)													
			0.11	> 2000	0.075	CCCCCCCCCCCCCCCC(=O)N[C@@H](CCC(=O)N[C@@H](CCC(=O)NCCCC[C@H](NC(=O)[C@H](CC(=O)O)NC(=O)[C@H](CO)NC(=O)[C@@H](NC(=O)[C@H](Cc1ccccc1)NC(=O)[C@@H](NC(=O)CNC(=O)[C@H](CCC(N)=O)NC(=O)C(C)(C)NC(=O)[C@@H](N)Cc1c[nH]cn1)[C@@H](C)O)[C@@H](C)O)C(=O)N[C@@H](CO)C(=O)N[C@@H](CCCCN)C(=O)N[C@@H](Cc1ccc(O)cc1)C(=O)N[C@@H](CC(C)C)C(=O)N[C@@H](CC(=O)O)C(=O)NC(C)(C)C(=O)N[C@@H](CCCNC(=N)N)C(=O)N[C@@H](C)C(=O)N[C@@H](C)C(=O)N[C@@H](CCC(N)=O)C(=O)N[C@@H](CC(=O)O)C(=O)N[C@@H](Cc1ccccc1)C(=O)N[C@H](C(=O)N[C@@H](CCC(N)=O)C(=O)N[C@@H](Cc1c[nH]c2ccccc12)C(=O)N[C@@H](CC(C)C)C(=O)N[C@@H](CCSC)C(=O)N[C@@H](CC(N)=O)C(=O)N[C@H](C(=O)N[C@@H](CCCCN)C(=O)N[C@@H](CCC(N)=O)C(=O)O)[C@@H](C)O)C(C)C)C(=O)O)C(=O)O [SEQ ID NO: 17] (H-H[Aib]QGTFTSDK([γGlu-γGlu-Palmitoyl])SKYLD[Aib]RAAQDFVQWLMNTKQ-OH; N-terminus assumed)	~9.6	~35.5	~28	~19	~48	~48	~45	-1.2	regained much of the weight that was lost	−25.7	−25	120 ± 20	improved glucose tolerance

From patent US20140221283A1 (Indiana University Research and Technology Corporation, priority 2011, published 2014)
